Reference: patent US12162881B2, “Forms and compositions of inhibitors of JAK2” (Ajax Therapeutics, Inc., priority 2021, dated 2024)
Converted amounts (≈) assume the structure as drawn. “And” between values parts separate entries of the source, which are not always exact repeats. Identical values can stand only once.

Columns and labels:
Type in all cases: physicochemical
[1] = Drying experiments of solvated Compound 1 materials (vacuum oven, XRPD); conditions: vac., RT, 1 d
Procedure: Drying experiments: Damp and solvated Compound 1 materials were placed in vacuum ovens set to ambient temperature or 80° C. for 1 day. Dried solids were analyzed by XRPD.

[2] = Approximate Aqueous Solubility of Selected Solid Forms; conditions: ambient temperature; for solubility: water, thermodynamic from solid
Procedure: Aliquots of various solvents were added to measured amounts of provided compounds with agitation at ambient temperature until complete dissolution was achieved, as judged by visual observation. If dissolution occurred after the addition of the first aliquot, values were reported as “>”. Results are shown in Table 18, where A is <2 mg/mL; B is <1 mg/mL.

[3] = Physical Stability of Selected Solid Forms (vacuum oven, XRPD); conditions: vac. oven
[4] = Solubility Study of Compound 1 Form 1 (solvent aliquot addition, visual observation); conditions: thermodynamic from solid, read-out: Solubility at ambient temperature
Procedure: Aliquots of various solvents were added to measured amounts of Compound 1 Form 1 with agitation at ambient temperature until complete dissolution was achieved, as judged by visual observation. […] See Table 15 below, where A is 5-20 mg/mL; B is 1-4.9 mg/mL; and C is <1 mg/mL.

[5] = Dynamic vapor sorption (DVS) hygroscopicity; conditions: for Hysteresis: in % (unit assumed); for DVS weight loss upon desorption / DVS weight loss upon desorption as water: desorption from 95% to 5% RH; for post-DVS XRPD: solid recovered after DVS cycle; for DVS hysteresis observation: sorption/desorption 5-95% RH
Procedure: Automated vapor sorption (VS) data were collected on a Surface Measurement System DVS Intrinsic instrument. Samples were not dried prior to analysis. Sorption and desorption data were collected over a range from 5% to 95% RH at 10% RH increments under a nitrogen purge. The equilibrium criterion used for analysis was less than 0.0100% weight change in 5 minutes with a maximum equilibration time of 3 hours. Data were not corrected for the initial moisture content of the samples.

[6] = visual observation, read-out: Estimated Aqueous Solubility

CC(=O)Nc1cc(Oc2cnc3nc(Nc4cc(C(F)(F)F)cn(C)c4=O)n(C)c3c2C#N)ccn1 [Compound 1 Form E, N-(4-((7-cyano-1-methyl-2-((1-methyl-2-oxo-5-(trifluoromethyl)-1,2-dihydropyridin-3-yl)amino)-1H-imidazo[4,5-b]pyridin-6-yl)oxy)pyridin-2-yl)acetamide]
XRPD Result after drying ([1]; listed as Form E): Form H (some disorder)

CC(=O)Nc1cc(Oc2cnc3nc(Nc4cc(C(F)(F)F)cn(C)c4=O)n(C)c3c2C#N)ccn1.CCS(=O)(=O)O [Esylate Form A, N-(4-((7-cyano-1-methyl-2-((1-methyl-2-oxo-5-(trifluoromethyl)-1,2-dihydropyridin-3-yl)amino)-1H-imidazo[4,5-b]pyridin-6-yl)oxy)pyridin-2-yl)acetamide esylate]
solubility [2, 6]: < 1000 µg/mL
XRPD Result (physical stability) ([3]; RT, 5 d): Esylate Form A

CC(=O)Nc1cc(Oc2cnc3nc(Nc4cc(C(F)(F)F)cn(C)c4=O)n(C)c3c2C#N)ccn1.O=P(O)(O)O [Phosphate Form A, N-(4-((7-cyano-1-methyl-2-((1-methyl-2-oxo-5-(trifluoromethyl)-1,2-dihydropyridin-3-yl)amino)-1H-imidazo[4,5-b]pyridin-6-yl)oxy)pyridin-2-yl)acetamide phosphate]
solubility [2, 6]: < 1000 µg/mL
XRPD Result (physical stability) ([3]; RT, 5 d): Phosphate Form A

CC(=O)Nc1cc(Oc2cnc3nc(Nc4cc(C(F)(F)F)cn(C)c4=O)n(C)c3c2C#N)ccn1 [Compound 1 Form F, N-(4-((7-cyano-1-methyl-2-((1-methyl-2-oxo-5-(trifluoromethyl)-1,2-dihydropyridin-3-yl)amino)-1H-imidazo[4,5-b]pyridin-6-yl)oxy)pyridin-2-yl)acetamide]
XRPD Result after drying ([1]; listed as Form F): Form F

CC(=O)Nc1cc(Oc2cnc3nc(Nc4cc(C(F)(F)F)cn(C)c4=O)n(C)c3c2C#N)ccn1.O=S(=O)(O)c1ccccc1 [Besylate Form A, N-(4-((7-cyano-1-methyl-2-((1-methyl-2-oxo-5-(trifluoromethyl)-1,2-dihydropyridin-3-yl)amino)-1H-imidazo[4,5-b]pyridin-6-yl)oxy)pyridin-2-yl)acetamide besylate]
solubility [2, 6]: < 1000 µg/mL
XRPD Result (physical stability) ([3]; RT, 5 d): Besylate Form C

CC(=O)Nc1cc(Oc2cnc3nc(Nc4cc(C(F)(F)F)cn(C)c4=O)n(C)c3c2C#N)ccn1 [Compound 5 Form A, N-(4-((7-cyano-1-methyl-2-((1-methyl-2-oxo-5-(trifluoromethyl)-1,2-dihydropyridin-3-yl)amino)-1H-imidazo[4,5-b]pyridin-6-yl)oxy)pyridin-2-yl)acetamide camsylate]
XRPD Result (physical stability) ([3]; RT, 5 d): Compound 5 Form C

CC(=O)Nc1cc(Oc2cnc3nc(Nc4cc(C(F)(F)F)cn(C)c4=O)n(C)c3c2C#N)ccn1 [Compound 1 Form G, N-(4-((7-cyano-1-methyl-2-((1-methyl-2-oxo-5-(trifluoromethyl)-1,2-dihydropyridin-3-yl)amino)-1H-imidazo[4,5-b]pyridin-6-yl)oxy)pyridin-2-yl)acetamide]
XRPD Result after drying ([1]; listed as Form G): Form B + peaks (some disorder)

N-(4-((7-cyano-1-methyl-2-((1-methyl-2-oxo-5-(trifluoromethyl)-1,2-dihydropyridin-3-yl)amino)-1H-imidazo[4,5-b]pyridin-6-yl)oxy)pyridin-2-yl)acetamide edisylate [Edisylate Form A]
Estimated Aqueous Solubility (mg/mL) ([2]; visual observation): B (B is <1 mg/mL)
XRPD Result (physical stability) ([3]; RT, 5 d): Edisylate Form C

CC(=O)Nc1cc(Oc2cnc3nc(Nc4cc(C(F)(F)F)cn(C)c4=O)n(C)c3c2C#N)ccn1 [Compound 1 Form 1, N-(4-((7-cyano-1-methyl-2-((1-methyl-2-oxo-5-(trifluoromethyl)-1,2-dihydropyridin-3-yl)amino)-1H-imidazo[4,5-b]pyridin-6-yl)oxy)pyridin-2-yl)acetamide]
solubility ([4]; organic solvent or mixture, solvent ACN): < 1000 µg/mL
solubility ([4]; organic solvent or mixture, solvent DCM): < 1000 µg/mL
solubility ([4]; organic solvent or mixture, solvent DMA): 5000 to 20000 µg/mL (≈ 10000 to 40100 µM)
solubility ([4]; organic solvent or mixture, solvent MeOH): < 1000 µg/mL
solubility ([4]; organic solvent or mixture, solvent TFE): 5000 to 20000 µg/mL (≈ 10000 to 40100 µM)
solubility ([4]; organic solvent or mixture, solvent THF): 1000 to 4900 µg/mL (≈ 2010 to 9830 µM)
solubility ([4]; organic solvent or mixture, solvent acetone): < 1000 µg/mL
solubility ([4]; water, solvent H2O): < 1000 µg/mL
Desorp Mass Change (%) ([5]; Target RH 5.0%): −0.011%
Sorp Mass Change (%) ([5]; Target RH 5.0%): 0.001%
Desorp Mass Change (%) ([5]; Target RH 15.0%): 0.103%
Sorp Mass Change (%) ([5]; Target RH 15.0%): 0.068%
Hysteresis ([5]; Target RH 15.0%): 0.036
Desorp Mass Change (%) ([5]; Target RH 25.0%): 3.654%
Sorp Mass Change (%) ([5]; Target RH 25.0%): 0.118%
Hysteresis ([5]; Target RH 25.0%): 3.536
Desorp Mass Change (%) ([5]; Target RH 35.0%): 3.877%
Sorp Mass Change (%) ([5]; Target RH 35.0%): 0.292%
Hysteresis ([5]; Target RH 35.0%): 3.585
Desorp Mass Change (%) ([5]; Target RH 45.0%): 4.084%
Sorp Mass Change (%) ([5]; Target RH 45.0%): 0.396%
Hysteresis ([5]; Target RH 45.0%): 3.687
Desorp Mass Change (%) ([5]; Target RH 55.0%): 4.203%
Sorp Mass Change (%) ([5]; Target RH 55.0%): 3.757%
Hysteresis ([5]; Target RH 55.0%): 0.446
Desorp Mass Change (%) ([5]; Target RH 65.0%): 4.403%
Sorp Mass Change (%) ([5]; Target RH 65.0%): 4.049%
Hysteresis ([5]; Target RH 65.0%): 0.354
Desorp Mass Change (%) ([5]; Target RH 75.0%): 4.578%
Sorp Mass Change (%) ([5]; Target RH 75.0%): 4.282%
Hysteresis ([5]; Target RH 75.0%): 0.296
Desorp Mass Change (%) ([5]; Target RH 85.0%): 4.677%
Sorp Mass Change (%) ([5]; Target RH 85.0%): 4.534%
Hysteresis ([5]; Target RH 85.0%): 0.142
Desorp Mass Change (%) ([5]; Target RH 95.0%): 4.804%
Sorp Mass Change (%) ([5]; Target RH 95.0%): 4.804%
DVS weight loss ([5]; desorption from 25% to 15% RH): 3.55%
DVS weight loss as water ([5]; desorption from 25% to 15% RH): 1.0 mol/mol H2O
DVS weight loss upon desorption [5]: 4.82%
DVS weight loss upon desorption as water [5]: 1.4 mol/mol H2O
post-DVS XRPD [5]: very similar
DVS weight gain ([5]; sorption from 5% to 95% RH): 4.80%
DVS weight gain as water uptake ([5]; sorption from 5% to 95% RH): 1.4 mol/mol H2O
DVS weight gain ([5]; sorption from 45% to 55% RH): 3.36%
DVS weight gain as water uptake ([5]; sorption from 45% to 55% RH): 1.0 mol/mol H2O
DVS hysteresis observation [5]: hysteresis evident

CC(=O)Nc1cc(Oc2cnc3nc(Nc4cc(C(F)(F)F)cn(C)c4=O)n(C)c3c2C#N)ccn1.Cl [Compound 2 Form A, N-(4-((7-cyano-1-methyl-2-((1-methyl-2-oxo-5-(trifluoromethyl)-1,2-dihydropyridin-3-yl)amino)-1H-imidazo[4,5-b]pyridin-6-yl)oxy)pyridin-2-yl)acetamide hydrochloride]
solubility [2, 6]: < 2000 µg/mL
solubility ([2]; read-out: Aqueous solubility, visually approximated): < 2000 µg/mL
Desorp Mass Change (%) ([5]; Target RH 5.0%): −0.0582%
Sorp Mass Change (%) ([5]; Target RH 5.0%): 0.0009%
Desorp Mass Change (%) ([5]; Target RH 15.0%): 0.0326%
Sorp Mass Change (%) ([5]; Target RH 15.0%): 0.0521%
Hysteresis ([5]; Target RH 15.0%): −0.0195
Desorp Mass Change (%) ([5]; Target RH 25.0%): 0.0900%
Sorp Mass Change (%) ([5]; Target RH 25.0%): 0.0998%
Hysteresis ([5]; Target RH 25.0%): −0.0098
Desorp Mass Change (%) ([5]; Target RH 35.0%): 0.1559%
Sorp Mass Change (%) ([5]; Target RH 35.0%): 0.1539%
Hysteresis ([5]; Target RH 35.0%): 0.0020
Desorp Mass Change (%) ([5]; Target RH 45.0%): 0.2304%
Sorp Mass Change (%) ([5]; Target RH 45.0%): 0.2007%
Hysteresis ([5]; Target RH 45.0%): 0.0297
Desorp Mass Change (%) ([5]; Target RH 55.0%): 0.3159%
Sorp Mass Change (%) ([5]; Target RH 55.0%): 0.2634%
Hysteresis ([5]; Target RH 55.0%): 0.0525
Desorp Mass Change (%) ([5]; Target RH 65.0%): 0.4283%
Sorp Mass Change (%) ([5]; Target RH 65.0%): 0.3387%
Hysteresis ([5]; Target RH 65.0%): 0.0896
Desorp Mass Change (%) ([5]; Target RH 75.0%): 0.5577%
Sorp Mass Change (%) ([5]; Target RH 75.0%): 0.5032%
Hysteresis ([5]; Target RH 75.0%): 0.0545
Desorp Mass Change (%) ([5]; Target RH 85.0%): 0.6871%
Sorp Mass Change (%) ([5]; Target RH 85.0%): 0.6403%
Hysteresis ([5]; Target RH 85.0%): 0.0468
Desorp Mass Change (%) ([5]; Target RH 95.0%): 0.9477%
Sorp Mass Change (%) ([5]; Target RH 95.0%): 0.9477%
DVS weight loss upon desorption as water [5]: 0.3 mol/mol H2O
DVS weight loss upon desorption ([5]; hydrochloride): 1.01% and 1.0059%
post-DVS XRPD [5]: Compound 2 Form A
DVS weight gain as water uptake ([5]; sorption from 5% to 95% RH): 0.3 mol/mol H2O
DVS weight gain ([5]; sorption from 5% to 95% RH, hydrochloride): 0.95% and 0.9468%
DVS hysteresis observation [5]: No hysteresis was observed

CC(=O)Nc1cc(Oc2cnc3nc(Nc4cc(C(F)(F)F)cn(C)c4=O)n(C)c3c2C#N)ccn1.CS(=O)(=O)O [Compound 4 Form A, N-(4-((7-cyano-1-methyl-2-((1-methyl-2-oxo-5-(trifluoromethyl)-1,2-dihydropyridin-3-yl)amino)-1H-imidazo[4,5-h]pyridin-6-yl)oxy)pyridin-2-yl)acetamide mesylate]
XRPD Result (physical stability) ([3]; 45° C., 2 d): Compound 4 Form B

Br.CC(=O)Nc1cc(Oc2cnc3nc(Nc4cc(C(F)(F)F)cn(C)c4=O)n(C)c3c2C#N)ccn1 [Compound 3 Form A, N-(4-((7-cyano-1-methyl-2-((1-methyl-2-oxo-5-(trifluoromethyl)-1,2-dihydropyridin-3-yl)amino)-1H-imidazo[4,5-b]pyridin-6-yl)oxy)pyridin-2-yl)acetamide hydrobromide]
XRPD Result (physical stability) ([3]; 45° C., 2 d): Compound 3 Form A +
